Measured values taken from paper PMC3299299, “Recombinant Expression and Characterization of Human and Murine ACE2: Species-Specific Activation of the Alternative Renin-Angiotensin-System” (International Journal of Hypertension, 2012).

How the values were obtained:
Type in all cases: biochemical
RAS in whole blood = experiment: Ex vivo incubation of whole blood, RAS-Fingerprinting; settings: whole blood instead of plasma, control and rhACE2 samples (Supplementary Figure 1)
From the text: These findings were in contrast to previously published reports on Ang 1–7 accumulating effects of ACE inhibitors in vivo [20, 21]. In our experimental setting, we employed heparinized blood plasma as a sample matrix for ACE2 characterization which is reflecting in vivo conditions very well. However, plasma lacks all blood cells which might carry receptors and angiotensin peptide converting enzymes being able to affect angiotensin peptide concentrations in vivo. […] As neutral endopeptidase (NEP, CD10) is known to be expressed on the cell surface of leukocytes and that it is able to convert Ang 1–10 and Ang 1–9 to Ang 1–7 in vitro [18], NEP is very likely to be responsible for Ang 1–7 accumulation also in vivo, especially in the presence of ACE inhibitors which block the formation of Ang 1–8 which is an important precursor for Ang 1–7.

[1] = tested on: human RAS in blood plasma; experiment: Ex vivo incubation of renin-spiked human plasma, RAS-Fingerprinting by LC-MS/MS; settings: human plasma + 100 pg/mL recombinant human renin, 10 μM Lisinopril present, without or with 5 μg/mL enzyme, 10 min 37°C (Fig 3b)
Protocol: Anticoagulated blood was collected from healthy volunteers, and plasma was separated by 10 minutes centrifugation at 3000 RCF. […] After 10 minutes of incubation at 37°C, in the presence or absence of Lisinopril (Sigma), samples were chilled on ice and immediately subjected to LC-MS/MS analysis.
Plasma samples were spiked with 100 pg/mL stable-isotope-labeled internal standards and subjected to solid-phase extraction using Sep-Pak cartridges (Waters) according to manufacturers protocol. Following elution and solvent evaporation, samples were reconstituted in 50 μL 50% acetonitrile/0.1% formic acid and subjected to LC-MS/MS analysis using a reversed-phase analytical column (Luna C18, Phenomenex) using a gradient ranging from 10% acetonitrile/0.1% formic acid to 70% acetonitrile/0.1% formic acid in 9 minutes. The eluate was analyzed in line with a QTRAP-4000 mass spectrometer (AB Sciex) operated in the MRM mode using dwell times of 25 msec at a cone voltage of 4000 volts and a source temperature of 300°C. For each peptide and corresponding internal standards, two different mass transitions were measured. Angiotensin peptide concentrations were calculated by relating endogenous peptide signals to internal standard signals provided that integrated signals achieved a signal-to-noise ratio above 10.
RAS-Fingerprints were measured by LC-MS/MS as indicated in Section 2. Samples were incubated in the absence (a) or presence (b) of 10 μM of the ACE inhibitor Lisinopril. In this figure, the diameter of the spheres reflects the concentration of the respective peptide metabolite, which is also given in pg/mL next to each individual sphere. 0 pg/mL indicates concentrations below quantification limits, which are defined by a signal-to-noise ratio below 10. Furthermore, the amino acid sequence of each angiotensin metabolite is schematically given in brackets beside the corresponding sphere. The sequence annotation is based on the decapeptide Angiotensin I (1–10) which is N- or C-terminally cleaved by the indicated proteases. […]

Ang 1–8 = experiment: In vitro kinetic assay, Ang 1–8 cleavage to Ang 1–7, HPLC quantification; settings: ratio of k cat of the same enzyme for the two substrates
Protocol: (§1) Enzyme reactions were started by adding a defined amount of enzyme to substrate dilutions in MES-buffer (50 mM MES, 300 mM NaCl, 10 μM ZnCl2, 0.01% Brij-35, pH 6.5) which were previously equilibrated at 37°C. Aliquots of the reaction mixes were taken every 10 minutes and stopped by addition of 0.5 M EDTA to a final concentration of 100 mM before HPLC-based quantification of peptides.
(§2) The concentration of peptides in enzymatic reactions was quantified by detection of peaks eluted from the HPLC column using an in-line diode array detector. Chromatography was performed by running a gradient on a reversed-phase matrix (Source 5RPC, 4.6×150 mm, 5 μm) with 0.08% H3PO4 in water as mobile phase A and 40% acetonitrile in water and 0.08% H3PO4 as mobile phase B. The optical density at 280 nm was recorded inline for all eluting peaks, and peptide concentrations were calculated via calibration curves for each individual peptide.
The turnover rates for natural ACE2 substrates were determined by in vitro incubation with excess amounts of substrate followed by reversed-phase HPLC analysis. […] The resulting time courses are shown in the graphs. […] Each time point was analyzed in true triplicates and standard deviations are given in the graphs together with linear regressions of the measured values.

Ang 1–10 = experiment: In vitro kinetic assay, Ang 1–10 cleavage to Ang 1–9, HPLC quantification; settings: […] enzyme, 65 μM Ang 1–10, MES buffer pH 6.5, 37°C, HPLC; mean of substrate degradation and product formation rates related to enzyme concentration; triplicates
Protocol: as §1, §2
The turnover rates for natural ACE2 substrates were determined by in vitro incubation with excess amounts of substrate followed by reversed-phase HPLC analysis. […] Each time point was analyzed in true triplicates and standard deviations are given in the graphs together with linear regressions of the measured values.

Molecule: NCCCC[C@H](N[C@@H](CCc1ccccc1)C(=O)O)C(=O)N1CCC[C@H]1C(=O)O [Lisinopril]
- Ang 1–7 concentration in whole blood in response to Lisinopril (RAS in whole blood): increase of Ang 1–7 concentrations
- Ang (1–10) concentration in plasma ([1]; 0 = below quantification limit): 710 pg/mL
- Ang (1–7) concentration in plasma ([1]; 0 = below quantification limit (2 pg/mL plasma)): < 2 pg/mL

Molecule: rhACE2: extracellular domain of human ACE2 recombinantly expressed in CHO cells
- turnover number for Ang 1–8 compared to Ang 1–10 (Ang 1–8): 42 fold
- k cat, Ang 1–10 ≥ Ang 1–9 (Ang 1–10): 0.018 s⁻¹
